From ChEMBL document CHEMBL1201862, “PubChem BioAssay data set” (2004)
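The compound was tested at five concentrations on cells cultured in 96-well plates, with a 48-hour exposure period. The concentration for 50% growth inhibition is given as GI50.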 Calls of active or inactive are those of the source. Rule as the data show it: active = GI50 up to about 1.1 µM and inactive = higher.

Assays:
Experiment in all cases: growth of human tumour cells (NCI), 48 h
[1] = test system: Malme-3M
[2] = test system: SK-OV-3
[3] = test system: SN12C
[4] = test system: SNB-75
[5] = test system: HCC 2998
[6] = test system: CCRF-CEM
[7] = test system: CAKI-1
[8] = test system: OVCAR-4
[9] = test system: HCT-116
[10] = test system: COLO 205
[11] = test system: SK-MEL-28
[12] = test system: SW-620
[13] = test system: A498
[14] = test system: M14
[15] = test system: NCI-H522
[16] = test system: K562
[17] = test system: HT-29
[18] = test system: EKVX

Measured: GI50

C=CC1(NS(=O)(=O)c2ccc(C)cc2)CCC(C(C)(C)C)CC1 (configuration not stated)
inactive: [1] 82.2 µM | [2] 34.4 µM | [3] > 100 µM | [4] 17.8 µM | [5] > 100 µM | [6] > 100 µM | [7] > 100 µM | [8] 91.6 µM | [9] > 100 µM | [10] > 100 µM | [11] > 100 µM | [12] > 100 µM | [13] > 100 µM | [14] 98.6 µM | [15] 32.7 µM | [16] > 100 µM

NC(=O)CC(N/C=C1/N=C(c2ccccc2)OC1=O)C(=O)O (configuration not stated)
inactive: [1] > 100 µM | [2] > 100 µM | [17] > 100 µM | [4] > 100 µM | [5] > 100 µM | [6] > 100 µM | [7] > 100 µM | [8] > 100 µM | [9] > 100 µM | [18] > 100 µM | [10] > 100 µM | [11] > 100 µM | [12] > 100 µM | [13] > 100 µM | [14] > 100 µM | [15] > 100 µM | [16] > 100 µM

COc1cc([C@@H]2c3cc4c(cc3C(N)C3COC(=O)[C@@H]32)OCO4)cc(OC)c1O (some centres not stated)
active: [17] 0.232 µM | [3] 0.445 µM | [4] 0.133 µM | [5] 0.249 µM | [6] 0.339 µM | [7] 0.163 µM | [8] 0.71 µM | [9] 0.33 µM | [10] 0.13 µM | [12] 0.301 µM | [14] 0.269 µM | [16] 0.225 µM

COc1ccc(/C=C2\C(=O)N(NC(C)=O)c3ccccc32)cc1
inactive: [1] > 100 µM | [2] > 100 µM | [17] 42 µM | [3] > 100 µM | [4] 33.5 µM | [5] 71.6 µM | [6] 49.7 µM | [7] 43.5 µM | [8] > 100 µM | [9] 63.4 µM | [18] 48.8 µM | [10] > 100 µM | [11] > 100 µM | [12] 95.9 µM | [13] > 100 µM | [14] > 100 µM | [16] 28.6 µM

COc1cc2c(cc1O)[C@@]1(Cc3ccc(OC)c(OC)c3)CCC(=O)N1CC2
inactive: [1] 68.4 µM | [17] > 100 µM | [3] > 100 µM | [4] > 100 µM | [5] > 100 µM | [6] > 100 µM | [7] > 100 µM | [8] > 100 µM | [9] > 100 µM | [18] > 100 µM | [10] > 100 µM | [11] > 100 µM | [12] > 10 µM | [13] > 100 µM | [14] > 100 µM | [16] > 100 µM

CN1N=C2NCCNC3=NN(C)/C(=N/CC/N=C/1S2)S3
inactive: [17] > 100 µM | [3] > 100 µM | [4] > 100 µM | [6] > 100 µM | [8] > 100 µM | [9] > 100 µM | [18] > 100 µM | [10] > 100 µM | [11] > 100 µM | [12] > 100 µM | [13] > 100 µM | [14] > 100 µM | [15] > 100 µM | [16] > 100 µM

COc1cccc2c1C(=O)c1c(O)c3c(c(O)c1C2=O)C[C@@](O)(C(C)=O)C[C@@H]3OC1CC([N+]([O-])(Cc2ccccc2)Cc2ccccc2)C(O)C(C)O1 (some centres not stated)
active: [3] 1.06 µM | [6] 0.399 µM | [12] 1 µM
inactive: [2] 4.2 µM | [17] 1.52 µM | [4] 1.48 µM | [5] 1.62 µM | [7] 1.14 µM | [8] 1.77 µM | [18] 1.8 µM | [13] 2.46 µM | [14] 1.69 µM | [15] 1.39 µM | [16] 1.7 µM

NC(CCCNc1cccc(O)c1)C(=O)O (configuration not stated)
inactive: [1] > 100 µM | [2] > 100 µM | [17] > 100 µM | [3] > 100 µM | [4] > 100 µM | [6] > 100 µM | [7] > 100 µM | [8] > 100 µM | [9] > 100 µM | [18] > 100 µM | [10] > 100 µM | [11] > 100 µM | [12] > 100 µM | [13] > 100 µM | [14] > 100 µM | [15] > 100 µM | [16] > 100 µM

CC1CCN(CCC(=O)CC(c2ccccc2)c2c(O)c3ccccc3oc2=O)CC1 (configuration not stated)
inactive: [2] > 100 µM | [17] > 100 µM | [4] 82.8 µM | [6] > 100 µM | [7] > 100 µM | [8] > 100 µM | [9] > 100 µM | [18] > 100 µM | [10] > 100 µM | [11] > 100 µM | [12] > 100 µM | [13] > 100 µM | [14] > 100 µM | [15] > 100 µM | [16] > 100 µM

CCN(CC)CCC1CC/C(=C\c2ccc(OC)cc2)C1=O (configuration not stated)
inactive: [1] > 100 µM | [17] 39.3 µM | [3] > 100 µM | [4] > 100 µM | [5] > 100 µM | [6] > 100 µM | [7] > 100 µM | [8] > 100 µM | [9] 87.9 µM | [18] > 100 µM | [10] 18 µM | [11] 74.8 µM | [12] > 100 µM | [13] 74.8 µM | [14] 35.5 µM | [15] 60.7 µM | [16] 40 µM

O=C1C(=Cc2ccc([N+](=O)[O-])o2)C(=O)N(CCc2ccccc2)S(=O)(=O)N1CCc1ccccc1
inactive: [1] 17.1 µM | [2] > 100 µM | [17] 33.5 µM | [3] 50.4 µM | [4] 37.9 µM | [5] > 100 µM | [6] 27.7 µM | [8] 16.3 µM | [9] 16.3 µM | [18] > 100 µM | [10] 20.2 µM | [11] 14.6 µM | [12] 19.5 µM | [14] 15.4 µM | [15] 19.9 µM | [16] 37 µM

C=C[C@@]1(O)CCCC2=C(C(=O)OCC)CC[C@]21C
inactive: [1] > 100 µM | [2] > 100 µM | [17] 64.4 µM | [3] > 100 µM | [5] > 100 µM | [6] 44.7 µM | [18] > 100 µM | [10] > 100 µM | [11] > 100 µM | [12] 54.7 µM | [14] 78.7 µM | [15] > 100 µM | [16] 30.8 µM

Nc1ccccc1Nc1ccccc1C(=O)[O-].Nc1ccccc1Nc1ccccc1C(=O)[O-].[Zn+2]
inactive: [1] > 100 µM | [2] > 100 µM | [17] > 100 µM | [3] > 100 µM | [4] 17.7 µM | [5] > 100 µM | [6] 33 µM | [7] > 100 µM | [9] > 100 µM | [18] > 100 µM | [10] > 100 µM | [11] > 100 µM | [12] > 100 µM | [13] > 100 µM | [14] 51.4 µM | [15] 19.7 µM | [16] 62.4 µM

C[C@]1(CO)CCC[C@@]2(C)C1CC[C@H]1CC3C[C@]12CC[C@]3(C)O (some centres not stated)
active: [6] 0.213 µM
inactive: [1] > 100 µM | [2] > 100 µM | [17] > 100 µM | [3] > 100 µM | [4] 30.8 µM | [5] 58.9 µM | [7] > 100 µM | [8] 46.1 µM | [9] 49.8 µM | [10] 36.4 µM | [11] > 100 µM | [12] > 100 µM | [14] > 100 µM | [15] 16.3 µM | [16] 11.5 µM

CCOC(=O)Oc1c(OC)cc(C(=O)NC2CCc3cc(OC)c(OC)c(OC)c3-c3ccc(SC)c(=O)cc32)cc1OC (configuration not stated)
inactive: [11] 20.7 µM
active: [1] 0.204 µM | [2] 0.0513 µM | [17] 0.0484 µM | [3] 0.0542 µM | [4] 0.071 µM | [5] 0.0473 µM | [6] < 0.007 µM | [8] 0.789 µM | [9] 0.0566 µM | [18] 0.16 µM | [10] 0.0439 µM | [12] 0.0419 µM | [13] 0.223 µM | [14] 0.138 µM | [15] < 0.007 µM | [16] < 0.007 µM

O=C1CCCN(c2ccccc2)N1
inactive: [1] > 100 µM | [2] > 100 µM | [17] > 100 µM | [3] > 100 µM | [4] > 100 µM | [5] > 100 µM | [7] > 100 µM | [8] > 100 µM | [9] > 100 µM | [18] > 100 µM | [11] > 100 µM | [12] > 100 µM | [13] > 100 µM | [14] > 100 µM | [15] > 100 µM | [16] > 100 µM

O=C1c2ccccc2C(=O)c2c1cc(S(=O)(=O)O)c(O)c2O [Alizarin Red S]
inactive: [2] > 100 µM | [17] > 100 µM | [3] > 100 µM | [4] > 100 µM | [5] > 100 µM | [6] > 100 µM | [7] > 100 µM | [8] > 100 µM | [9] > 100 µM | [18] > 100 µM | [10] > 100 µM | [11] > 100 µM | [12] > 100 µM | [13] > 100 µM | [14] > 100 µM | [15] > 100 µM | [16] > 100 µM
